Experiments:
Vero cells = assay type: cell-based; settings: green monkey, 96 h
Description: (§1) Compounds were added to the plates and diluted following a dose-response pattern in assay medium. Vero cells were prepared in assay medium and added to each well as described ([Martinez-Peinado et al., 2020]). Each test plate contained its own negative (untreated cells) and positive (medium alone) control wells ([Martinez-Peinado et al., 2020]). BNZ and digitoxin (DTX) were included as non-toxicity and toxicity drug controls, respectively. Parallel assays with HepG2 cells were carried out to evaluate the toxicity of compounds in a human cell line as described ([Martinez-Peinado et al., 2020]). […] Vitality was measured with Alamar Blue (Thermo Fischer Scientific, Waltham, USA) to detect metabolically active (live) cells by fluorimetry. For this, a PBS dilution with 10% Alamar Blue was added to each well and the plates were incubated at 37°C for 6 h. Readout was performed on a TECAN Infinite M Nano+ reader (Tecan Trading AG, Männedorf, Switzerland) using i-control™ 2.0 software and setting excitation at 530 nm and emission at 590 nm.

HepG2 cells = assay: HepG2 cell toxicity assay (Alamar Blue, 48 h); assay type: cell-based, human
Description: as §1

[1] = system: T. cruzi Tulahuen parasites; settings: Vero TC50 / anti-T. cruzi IC50
Description: Trypomastigotes were isolated for the maintenance of the cycle and for the performance of the antiparasitic assays, respectively. Briefly, medium containing free swimming trypomastigotes was harvested in falcon tubes and centrifuged at 2,500 rpm for 10 minutes to remove cell debris. […] In the second case, another centrifugation was made to get rid of any PR remnants that may interfere in the assay readout.
Compounds were added to a flat 96-well cell culture plate (SPL Life Sciences, Pocheon-si, Korea) and diluted in assay medium following a 1:2 dose-response pattern. Vero cells were detached, washed and counted using a Neubauer chamber. On the other side, T. cruzi trypomastigotes were collected and counted. Then, 50,000 trypomastigotes and 50,000 Vero cells were simultaneously added to each well to reach a final volume of 200 μl per well (multiplicity of infection or MOI = 1). […] Note that trypomastigotes are unable to multiply and therefore they mark the enzymatic time zero. In addition to those controls, BNZ-treated wells were also included as a positive control of drug inhibition. Plates were incubated at 37°C for 96 h. After that, chlorophenol red-β-D-galactopyranoside (CPRG) substrate was added to detect the enzymatic activity of β-galactosidase expressed by the parasites. […] Absorbance was measured at 590 nm in an Epoch Gene5 Microplate Spectrophotometer (BioTek, Winooski, USA).
(§2) Half maximum inhibitory (IC50) and half maximum toxicity concentration (TC50) values were determined with GraphPad Prism 7 software (version 7.00, San Diego, USA) using a nonlinear regression analysis model defined by equation 2:
(§3) Values were expressed as means with standard deviations (SD) of at least three independent experiments.

T. cruzi amastigotes = assay: Amastigotes growth inhibition assay (infected Vero cells, 72 h, CPRG); settings: for IC50: Trypanosoma cruzi, Vero, 72 h, read-out: [IC50] Anti-amastigote assay; for activity against amastigotes: active = IC50 ≤ 10× that of BNZ
Description: Upon washing the monolayers with PBS, purified trypomastigotes were added at a concentration of 1×10^7 trypomastigotes per flask (MOI = 1) and infected monolayers were kept in assay medium. After 18 h, infected Vero cells were PBS-washed and trypsin-detached, diluted at a concentration of 5×10^5 cells per ml in assay medium and 100 μl of that solution (50000 cells) added to 96-well test plates already containing the compounds.
as §2, §3

[2] = Microscopy-based observation of compound dissolution / crystals in assay medium; assay type: physicochemical; settings: for solubility: compounds at 750 μM, read-out: solubility issues / crystals formed during the assays
Description: Among the eight compounds selected, five carried the benzene ring group at position C8 illustrating the relevance of this substituent. Family by family, L4-0c was the only selected from L4-0.
Figure S3. Crystals of the compounds [750 μM] formed during the assays. The eight compounds selected through the discovery cascade are shown in bold. Besides, those indicated with an asterisk too had solubility issues. BNZ is shown at 400 μM.

O=C(Cn1ccnc1[N+](=O)[O-])NCc1ccccc1 [BNZ, benznidazole, reference compound]
[TC50] Vero cells assays (Vero cells): 196.90 ± 30.67 µM | [TC50] HepG2 assay (HepG2 cells; human): 490.90 ± 267.10 µM | SI Vero cells assays (TC50/IC50) [1]: 81.36 | IC50 (T. cruzi amastigotes): 1.47 ± 0.08 µM

Cc1nc2c(NCc3ccccc3)ncnc2n1Cc1ccccc1 [Compound L4-0b]
[TC50] Vero cells assays (Vero cells): 68.16 ± 12.00 µM | SI Vero cells assays (TC50/IC50) [1]: 4.75

c1ccc(CNc2ncnc3c2nc(-c2ccccc2)n3Cc2ccccc2)cc1 [Compound L4-0c]
[TC50] Vero cells assays (Vero cells): > 1,000 μM | [TC50] HepG2 assay (HepG2 cells; human): > 10,000 μM | dissolution in assay medium (microscopy-based observation) [2]: failed to be completely dissolved | IC50 (T. cruzi amastigotes): 11.2 ± 0.35 µM | activity against amastigotes (T. cruzi amastigotes): active

c1ccc(CCNc2ncnc3c2ncn3CCc2ccccc2)cc1 [Compound L4-1a]
[TC50] Vero cells assays (Vero cells): 39.26 ± 4.81 µM | SI Vero cells assays (TC50/IC50) [1]: 2.59

Cc1nc2c(NCCc3ccccc3)ncnc2n1CCc1ccccc1 [Compound L4-1b]
[TC50] Vero cells assays (Vero cells): 55.91 ± 5.64 µM | SI Vero cells assays (TC50/IC50) [1]: 3.52

c1ccc(CCNc2ncnc3c2nc(-c2ccccc2)n3CCc2ccccc2)cc1 [Compound L4-1c]
[TC50] Vero cells assays (Vero cells): > 1,000 μM | [TC50] HepG2 assay (HepG2 cells; human): 53.96 ± 12.33 µM | IC50 (T. cruzi amastigotes): 6.21 ± 0.29 µM | activity against amastigotes (T. cruzi amastigotes): active

COc1ccc(CNc2ncnc3c2nc(-c2ccccc2)n3Cc2ccc(OC)cc2)cc1 [Compound L4-2c]
[TC50] Vero cells assays (Vero cells): > 1,000 μM | [TC50] HepG2 assay (HepG2 cells; human): > 10,000 μM | IC50 (T. cruzi amastigotes): 6.19 ± 0.21 µM | activity against amastigotes (T. cruzi amastigotes): active

Clc1ccc(CNc2ncnc3c2ncn3Cc2ccc(Cl)cc2)cc1 [Compound L4-4a]
[TC50] Vero cells assays (Vero cells): > 1,000 μM | [TC50] HepG2 assay (HepG2 cells; human): > 1,000 μM | IC50 (T. cruzi amastigotes): 9.36 ± 0.4 µM | activity against amastigotes (T. cruzi amastigotes): active

Cc1nc2c(NCc3ccc(Cl)cc3)ncnc2n1Cc1ccc(Cl)cc1 [Compound L4-4b]
[TC50] Vero cells assays (Vero cells): 27.01 ± 2.00 µM | SI Vero cells assays (TC50/IC50) [1]: 5.17

Clc1ccc(CNc2ncnc3c2nc(-c2ccccc2)n3Cc2ccc(Cl)cc2)cc1 [Compound L4-4c]
[TC50] Vero cells assays (Vero cells): 187.50 ± 54.14 µM | [TC50] HepG2 assay (HepG2 cells; human): 164.80 ± 38.82 µM | IC50 (T. cruzi amastigotes): 4.2 ± 0.21 µM | activity against amastigotes (T. cruzi amastigotes): active

Brc1ccc(CCNc2ncnc3c2nc(-c2ccccc2)n3CCc2ccc(Br)cc2)cc1 [Compound L4-7c]
[TC50] Vero cells assays (Vero cells): 909.20 ± 564.00 µM | [TC50] HepG2 assay (HepG2 cells; human): 550.60 ± 130.00 µM | IC50 (T. cruzi amastigotes): 7.51 ± 0.79 µM | activity against amastigotes (T. cruzi amastigotes): active

Clc1cccc(CNc2ncnc3c2ncn3Cc2cccc(Cl)c2)c1 [Compound L4-8a]
[TC50] Vero cells assays (Vero cells): 346.30 ± 189.30 µM | [TC50] HepG2 assay (HepG2 cells; human): 35.21 ± 5.52 µM

Cc1nc2c(NCc3cccc(Cl)c3)ncnc2n1Cc1cccc(Cl)c1 [Compound L4-8b]
[TC50] Vero cells assays (Vero cells): 60.11 ± 8.50 µM | [TC50] HepG2 assay (HepG2 cells; human): 17.77 ± 0.71 µM | SI Vero cells assays (TC50/IC50) [1]: 11.65

Clc1cccc(CNc2ncnc3c2nc(-c2ccccc2)n3Cc2cccc(Cl)c2)c1 [Compound L4-8c, N,9-bis(3-chlorobenzyl)-8-phenyl-9H-purin-6-amine]
[TC50] Vero cells assays (Vero cells): > 1,000 μM | [TC50] HepG2 assay (HepG2 cells; human): > 1,000 μM | dissolution in assay medium (microscopy-based observation) [2]: presence of crystals | solubility [2]: < 750 µM | IC50 (T. cruzi amastigotes): 7.61 ± 0.36 µM | activity against amastigotes (T. cruzi amastigotes): active

Cc1nc2c(NCc3ccccc3Cl)ncnc2n1Cc1ccccc1Cl [Compound L4-9b]
[TC50] Vero cells assays (Vero cells): > 1,000 μM | [TC50] HepG2 assay (HepG2 cells; human): 372.20 ± 51.70 µM | dissolution in assay medium (microscopy-based observation) [2]: presence of crystals | solubility [2]: < 750 µM | IC50 (T. cruzi amastigotes): 8.87 ± 0.42 µM | activity against amastigotes (T. cruzi amastigotes): active

Clc1ccccc1CNc1ncnc2c1nc(-c1ccccc1)n2Cc1ccccc1Cl [Compound L4-9c]
[TC50] Vero cells assays (Vero cells): > 10,000 μM | [TC50] HepG2 assay (HepG2 cells; human): >10,000 μM | SI Vero cells assays (TC50/IC50) [1]: > 10,000 | IC50 (T. cruzi amastigotes): 28.7 ± 2.34 µM | activity against amastigotes (T. cruzi amastigotes): inactive

C[C@H]1O[C@@H](O[C@H]2[C@@H](O)C[C@H](O[C@H]3[C@@H](O)C[C@H](O[C@H]4CC[C@@]5(C)[C@H](CC[C@@H]6[C@@H]5CC[C@]5(C)[C@@H](C7=CC(=O)OC7)CC[C@]65O)C4)O[C@@H]3C)O[C@@H]2C)C[C@H](O)[C@@H]1O [DTX, digitoxin, reference compound]
[TC50] HepG2 assay (HepG2 cells; HepG2 cells, mean ± SD): 1.29 ± 0.40 µM

Reference: publication PMC9880260, “Identification of compounds with activity against Trypanosoma cruzi within a collection of synthetic nucleoside analogs” (Frontiers in Cellular and Infection Microbiology, 2023)
